The values below come from a melting point compilation (Tetko et al.; mined from patent text by program, amines drawn as free bases though some values may be those of a salt).

What is called melting point is the temperature, or range, at which the solid turns liquid.

`O=C(Nc1cccc(F)c1F)c1ccc(-n2nc(C(F)(F)F)cc2C2CC2)nc1` returned a melting point of 155 to 160 °C.

For the compound `Cc1cc2c(nc3n2CCC3)c([N+](=O)[O-])c1Br`, the melting point lay in the range of 201 to 203 °C. The result for `COc1cccc(-n2c(N3CCNCC3)c(C(=O)N3CCN(C)CC3)c3ccccc32)c1` reads 228 to 230 °C; that for `O=C(N[C@H]1CC[C@H](CCN2CCN(c3nccc4c3CCO4)CC2)CC1)c1ccc(-c2cccnc2)cc1`, 218 °C; that for `COc1ccc(C=C(C)c2cc(OC)sc2C)cc1`, 112 to 113 °C. The result for `O=C(NC(=O)N(Sc1ccccc1[N+](=O)[O-])c1ccc(Cl)cc1)c1c(F)cccc1F` reads 176 to 178 °C; that for `O=C1CCCc2sc(CCN3CCC(c4coc5cc(F)ccc45)CC3)cc2N1`, 176 to 178 °C. The compound `CCCCCCCNC(=O)N(C)c1ccc(C)c(-c2ccc(C=CC(=O)O)cc2)c1` gave a melting point of 159 °C. The result for `N#Cc1ncn2c1[C@@H]1CCCN1C(=O)c1sccc1-2` reads 249 to 251 °C; that for `COC(=O)C1=C(C)NC(CF)=C(C(=O)OC)C1c1c(F)c(F)c(F)c(F)c1F` (centres undefined), 148 to 150 °C. The result for `CC(C)=NOCc1nc2c(N)nc3c(c2n1CC(C)C)CCCC3` reads 176 to 177 °C; that for `Cc1cc(Cn2nc(-c3ccccc3)oc2=O)cc(C(C)(C)C)c1O`, 152 °C; that for `CCC1C(C)=NN=C(c2ccc(OC)c(OC)c2)c2cc(OC)c(OCCCN(C)C)cc21` (centres undefined), 126 to 128 °C. The result for `CC1=C(C(=O)OC(C)(C)C)C(c2ccc(Br)cc2F)C(C(=O)OC(C)(C)C)=C(C)N1` reads 187 to 188 °C; that for `NC(=O)CNC(=O)c1cc(-c2ccc(F)c3cc(Cc4cc(F)cc(Cl)c4)sc23)ccc1F`, 148 to 150 °C.

In the case of `CC1(C)CC(=C(c2ccc(O)cc2)c2ccc(I)cc2)CC(C)(C)C1`, the melting point was 148 to 149 °C. The result for `Cc1nc2nsc(N)c2s1` reads 164 to 167 °C; that for `COc1cc(COc2nn(-c3ccccc3)cc2C#N)ccc1OCc1nc(-c2ccccc2)oc1C`, 174 to 175 °C; that for `CCc1oc2ccccc2c1C(=O)c1cc(Br)c(OS(=O)(=O)c2ccc(C(=O)O)c(O)c2)c(Br)c1`, 173 °C. Take `CSc1ccc(C2=NNC(=O)CC2c2ccccc2)cc1` (centres undefined): the melting point was 213 to 214 °C. `CC(C)N1CC(C(=O)c2c[nH]c(Cc3ccc(F)cc3)n2)=C(O)C1=O`: the melting point worked out at 220 °C. The value for `N=C(N)c1ccc2cc(OC(=O)CCCCCNC(=O)OCc3ccccc3)ccc2c1` was 119 to 122 °C. The result for `CCCNC(=O)NC1CCCCC1` reads 108 to 109 °C; that for `Cc1cccc(OC(=O)n2c3c(c(=O)n(C4CCCCO4)c2=O)CCC3)c1` (centres undefined), 155 °C.

Compound `CCc1scc(C(=O)OC)c1NC(C)=O` gave a melting point of 85 to 86 °C. The compound `NS(=O)(=O)c1ccc2c(c1)CNC(C1CCCCC1)N2` (centres undefined) had a melting point of 178 to 180 °C.

For the compound `FC(F)(F)c1ccc(-c2ncc(Br)cn2)cc1`, the melting point was determined as 167 °C. The result for `CNC(=O)OC1c2ccccc2C(=O)N1c1ccc2ccc(Cl)nc2n1` (centres undefined) reads 260 °C; that for `CN1CCN2c3ccc(Cl)cc3C(c3ccco3)=[N+]([O-])CC2C1` (centres undefined), 202 to 204 °C; that for `CC(c1ccncn1)C(O)(Cn1cncn1)c1ccc(F)cc1F` (centres undefined), 114 to 116 °C. The result for `O=C(Cn1ccnc1)c1cc(Br)cc2ccccc12` reads 242 to 244 °C; that for `CCNS(=O)(=O)c1ccc(C(O)c2ccc3c(c2)C(C)(C)CCC3(C)C)cc1` (centres undefined), 175 °C; that for `Cc1c(C)c2c(c(C)c1OCc1ccccc1)CC[C@@](C)(CC(=O)CC(=O)OCc1ccccc1)O2`, 72.5 to 74 °C.

Consider `FC(F)C(F)(F)Oc1cccc(Nc2nccc(-c3ccc(Cl)cc3)n2)c1`, for which the melting point lay in the range of 133 to 135 °C. The result for `COC(=O)c1cccc(-c2c(C)c(C(=O)c3ccc4nc(C)[nH]c(=O)c4c3)n3ccccc23)c1` reads 232 °C; that for `ON=c1cc(-c2cc3cccn3cn2)oc2ccc(OCCOc3ccncc3)cc12`, 198 to 200 °C; that for `CCOC(=O)C1=C(C)NC(=O)N(C(N)=O)C1c1cccc([N+](=O)[O-])c1` (centres undefined), 213 to 215 °C. `CCN1CCc2nc(Nc3cc(-c4cc(F)cc(C5NCCc6c5sc5c6CC(C)(C)C5)c4CO)cn(C)c3=O)ccc2C1` (centres undefined) showed a melting point of 134 to 135 °C. For `CC(O)c1cc2c3ccccc3n(C)c(=O)n2n1` (centres undefined), the melting point was in the range of 169 to 172 °C. The compound `O=C(CCC1OC=CO1)c1ccc2c(c1)OCO2` yielded a melting point of 94 to 96 °C. The result for `Cc1ccc(C(=O)Cn2c(=O)sc3ccccc32)cc1` reads 168 to 170 °C; that for `CCOC(=O)C(=Nc1ccccc1)c1cccn1C`, 69 to 71 °C; that for `C#Cc1c(OC)nc(C)nc1C(F)(F)F`, 77 °C. The compound `Cc1cc(C(=O)O)ccc1-c1ccc2cc3c(cc2c1)C(C)(C)CCC3(C)C` showed a melting point of 248 to 250 °C. The result for `Cc1c(Br)ccc(S(C)(=O)=O)c1S(C)(=O)=O` reads 169 to 171 °C; that for `Cc1c[nH]c(=O)n(CCCCl)c1=O`, 117 to 121 °C; that for `Nc1nc(N)c(CCCCc2csc(OC(=O)N[C@@H](CCC(=O)O)C(=O)O)c2)c(O)n1`, 235 to 236 °C. On to `CCOC(=O)c1ccc(OCCCCCCCCC#CCCCCOc2ccc(Cl)cc2)cc1`, for which the melting point fell in the range of 52 to 53 °C. As to `C=CC(c1ccccc1)c1cc(C)c2c(c1O)C(=O)CC2` (centres undefined), the melting point is 131 to 132 °C.

On to `Cc1cc(=O)c(O)c(C(C)O)o1` (centres undefined), for which the melting point was in the range of 127 to 130 °C. The value for `CCOC(=O)c1c(CC)nn2c(-c3ccccc3)ccnc12` was 83 to 84 °C; that for `OC(c1cncs1)(c1cncs1)C(F)(F)F` was 109 to 110 °C; that for `CCc1ccc2ccc(=O)[nH]c2n1` was 133 to 134 °C. In turn, `NC(=O)CSC(=O)c1ccco1` registered a melting point of 126 to 128 °C. Take `Cc1cc(C)n2nc(S(=O)(=O)Cl)c(C#N)c2n1`: the melting point was found to be 138 °C. The compound `COc1c(C#N)cc(-c2c3ccccc3cc3sc4ccccc4c23)cc1C#N` registered a melting point of 214 to 215 °C.

With `CC(=O)OC(C)C(=O)Nc1ccc(C2=NNC(=O)CC2C)cc1` (centres undefined), the melting point fell in the range of 198 to 200 °C. The result for `CC1(C)OCC(COc2cc(O)nc(N)n2)O1` (centres undefined) reads 258 °C. The value for `Cc1ccc(-c2nc(=S)n(Cc3ccccc3)[nH]2)cc1` was 234 to 235 °C; that for `CCC(=O)C1=C(O)CC(c2ccc3c(c2)CCC3)CC1=O` (centres undefined) was 98 °C; that for `Cc1ccc(C(=O)Nc2cc(-c3cccnc3)cc(C(F)(F)F)c2)cc1Nc1nccc(-c2cccnc2)n1` was 275 to 279 °C. `CC1=C(c2nc(C)no2)C(c2cccc(Cl)c2Cl)C(c2nc(C)no2)=C(C)N1`: the melting point fell in the range of 227 to 229 °C. The value for `CCOC(=O)Cc1c(-c2ccc(Cl)cc2)nn(-c2ccccc2)c1-c1ccc(Cl)cc1` was 120 to 122 °C; that for `CNc1ncnc(N2CCc3ccccc32)n1` was 185 to 187 °C. The result for `CNC(=O)C(c1ccccc1F)N(C(=O)CNC(=O)Nc1cccc(C)c1)c1cccc(OC)c1` (centres undefined) reads 110 °C; that for `COc1cccc2[nH]c3c(c12)CC(N(C)C)CC3` (centres undefined), 185 to 189 °C. With `CCCNC(=O)C(C)Cc1ccc2c(c1)c(Cc1ccc(C(=O)O)cc1OC)cn2CCC` (single isomer, unassigned; (-)), the melting point fell in the range of 85 to 93 °C. The result for `CC(C)N1CCN(C(=O)OC2C3=C(SCCS3)C(=O)N2c2ccc(Cl)cn2)CC1` (centres undefined) reads 130 to 135 °C; that for `COC(=O)c1ccc2c(c1)C(=O)NC(C(Cl)(Cl)Cl)O2` (centres undefined), 218 to 220 °C. Take `CN(C)CCS(=O)(=O)NC(=O)CCn1c2ccc(O)cc2c2c3c(c(-c4ccccc4Cl)cc21)C(=O)NC3=O`: the melting point was in the range of 229 to 233 °C.

`NC(=O)c1nnn(Cc2ccc(Cl)c(Cl)c2)c1N` returned a melting point of 221 to 222 °C. The value for `CCCC(=O)c1cnc2c(O)cccc2c1Nc1ccc(F)cc1C` was 121 to 122 °C; that for `O=C(O)CCc1c(Cl)cccc1-c1cccs1` was 83 to 86 °C. `Cc1noc(NC(=O)N2CCN(c3cc(-c4ccccc4F)ncn3)CC2)c1C` had a melting point of 189 to 190 °C.

In turn, `CC(=O)Oc1cccc(Br)c1` came in with a melting point of 33 to 40 °C. The result for `C[C@H](c1ccccc1)n1c(O)nc2c(N)nc3ccccc3c21` reads > 250 °C. Consider `CCOc1cc(C)c(NCCO)cc1[N+](=O)[O-]`, for which the melting point came out at 119 °C. As to `COc1ccc(-c2[nH]c3ccc(OCc4ccccc4)cc3c2C)cc1`, the melting point amounted to 158 °C. The compound `CC(C)(C)NC1=NCCNC(c2ccccc2)=C1` yielded a melting point of 93 to 97 °C. Turning to `Cc1noc(NS(=O)(=O)c2cccc3nsnc23)c1Br`, the melting point fell in the range of 177 to 179 °C. Compound `Cc1nnc(CNC(=O)CN2C(=O)c3ccccc3C2=O)n1-c1ccc(Cl)cc1C(=O)c1ccccc1` showed a melting point of 251 to 253 °C. On to `CC(=O)OCc1c(C(=O)C(=O)O)c2cc(-c3ccc(OC(F)(F)F)cc3)ccc2n1Cc1ccccc1`, for which the melting point lay within 85 to 86 °C. The value for `Nc1ncnc2c1c(-c1ccc(Oc3ccccc3)cc1)cn2C1CCOC1` (centres undefined) was 165 to 166 °C; that for `COC(=O)[C@H](CC(C)C)NC(=O)[C@@H](CCSC)NC(=O)OC(C)(C)C` was 61 to 64 °C; that for `COc1ccccc1-n1c(=O)[nH]c2c(C(N)=O)nc(C3CCCC3)nc21` was 244 to 246 °C. The value for `CC(Oc1ccc(-c2cccc(C(N)=O)c2)cc1)C(O)CCc1cccnc1` (centres undefined) was 74 to 76 °C; that for `CSC1=NC2=NC3=C(CN2N1)C(Cc1ccccc1)CNC3=O` (centres undefined) was 232 to 234 °C. `Cc1cc(-c2[nH]c3ccc(N)cc3c2C)cc(C)c1O` returned a melting point of 184 to 185 °C. `CC(=O)[Si](C)(C(C)(C)C)C(C)(C)C` had a melting point of 35 °C.
